Columns and labels:
ABUTH [1] = test: Pre-emergence herbicidal action against ABUTH; assay type: in vivo, Abutilon theophrasti; conditions: Abutilon theophrasti, 504 h; for pest or weed control at 80 g/ha: scored visually after 3 weeks vs untreated controls (100% = plants have died, 0% = like control plants)
Summary of the method: (§1)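 Herbicidal effect was assessed 3 weeks after treatment by visual comparison with untreated controls, 100% denoting dead plants. Aqueous WP or EC preparations had been applied at 600 to 800 l/ha with 0.2% wetting agent to the soil covering freshly sown seeds.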

ALOMY = test: Pre-emergence herbicidal action against ALOMY; assay type: in vivo, Alopecurus myosuroides; conditions: Alopecurus myosuroides, 504 h; 80 g/ha, pre-emergence, scored visually after 3 weeks vs untreated controls (100% = plants have died, 0% = like control plants)
Summary of the method: as §1

AMARE [2] = test: Pre-emergence herbicidal action against AMARE; assay type: in vivo, Amaranthus retroflexus; conditions: Amaranthus retroflexus, 504 h, scored visually after 3 weeks vs untreated controls, 100% = plants have died, 0% = like control plants
Summary of the method: as §1

AVEFA = test: Pre-emergence herbicidal action against AVEFA; assay type: in vivo, Avena fatua; conditions: Avena fatua, 504 h; 80 g/ha, pre-emergence
Summary of the method: as §1

ECHCG [3] = test: Pre-emergence herbicidal action against ECHCG; assay type: in vivo, Echinochloa crus-galli; conditions: Echinochloa crus-galli, 504 h, 80 g/ha
Summary of the method: as §1

MATIN [4] = test: Pre-emergence herbicidal action against MATIN; assay type: in vivo, Matricaria inodora; conditions: Tripleurospermum inodorum, 504 h; for pest or weed control at 20 g/ha: dosage 20 g/ha; for pest or weed control at 80 g/ha: dosage 80 g/ha
Summary of the method: as §1

PHBPU [5] = test: Pre-emergence herbicidal action against PHBPU; assay type: in vivo, Pharbitis purpurea; conditions: Ipomoea purpurea, 504 h; for pest or weed control at 80 g/ha: dosage 80 g/ha
Summary of the method: as §1

POLCO = test: Pre-emergence herbicidal action against POLCO; assay type: in vivo, Polygonum convolvulus; conditions: Fallopia convolvulus, 504 h; for pest or weed control at 80 g/ha: dosage 80 g/ha
Summary of the method: as §1

SETVI [6] = test: Pre-emergence herbicidal action against SETVI; assay type: in vivo, Setaria viridis; conditions: Setaria viridis, 504 h; for pest or weed control at 20 g/ha: dosage 20 g/ha; for pest or weed control at 80 g/ha: dosage 80 g/ha
Summary of the method: as §1

VERPE [7] = test: Pre-emergence herbicidal action against VERPE; assay type: in vivo, Veronica persica; conditions: Veronica persica, 504 h, dosage 80 g/ha
Summary of the method: as §1

VIOTR [8] = test: Pre-emergence herbicidal action against VIOTR; assay type: in vivo, Viola tricolor; conditions: Viola tricolor, 504 h; for pest or weed control at 20 g/ha: dosage 20 g/ha; for pest or weed control at 80 g/ha: dosage 80 g/ha
Summary of the method: as §1

DIGSA [9] = test: Pre-emergence herbicidal action against DIGSA; assay type: in vivo, Digitaria sanguinalis; conditions: Digitaria sanguinalis, 504 h; for pest or weed control at 80 g/ha: dosage 80 g/ha
Summary of the method: as §1

ABUTH [10] = test: Post-emergence herbicidal action against ABUTH; assay type: in vivo, Abutilon theophrasti; conditions: Abutilon theophrasti, 504 h, visual assessment about 3 weeks after treatment vs untreated controls; for pest or weed control at 5 g/ha: dosage 5 g/ha; for pest or weed control at 20 g/ha: dosage 20 g/ha
Summary of the method: (§2)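 Post-emergence greenhouse test; one-leaf stage, 2–3 wk post-sowing, sandy loam. Foliar spray of WP/EC in water, 600–800 l/ha, +0.2% wetting agent. Visual % action at ~3 wk vs untreated (100% = plants dead).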

AMARE [11] = test: Post-emergence herbicidal action against AMARE; assay type: in vivo, Amaranthus retroflexus; conditions: Amaranthus retroflexus, 504 h, 20 g/ha, visual assessment about 3 weeks after treatment, 100% = plants have died, 0% = like control plants
Summary of the method: as §2

ECHCG [12] = test: Post-emergence herbicidal action against ECHCG; assay type: in vivo, Echinochloa crus-galli; conditions: Echinochloa crus-galli, 504 h; for pest or weed control at 5 g/ha: dosage 5 g/ha; for pest or weed control at 20 g/ha: dosage 20 g/ha
Summary of the method: as §2

MATIN [13] = test: Post-emergence herbicidal action against MATIN; assay type: in vivo, Matricaria inodora; conditions: Tripleurospermum inodorum, 504 h; for pest or weed control at 20 g/ha: dosage 20 g/ha
Summary of the method: as §2

PHBPU [14] = test: Post-emergence herbicidal action against PHBPU; assay type: in vivo, Pharbitis purpurea; conditions: Ipomoea purpurea, 504 h; for pest or weed control at 20 g/ha: dosage 20 g/ha
Summary of the method: as §2

SETVI [15] = test: Post-emergence herbicidal action against SETVI; assay type: in vivo, Setaria viridis; conditions: Setaria viridis, 504 h; for pest or weed control at 5 g/ha: dosage 5 g/ha; for pest or weed control at 20 g/ha: dosage 20 g/ha
Summary of the method: as §2

VERPE [16] = test: Post-emergence herbicidal action against VERPE; assay type: in vivo, Veronica persica; conditions: Veronica persica, 504 h
Summary of the method: as §2

VIOTR [17] = test: Post-emergence herbicidal action against VIOTR; assay type: in vivo, Viola tricolor; conditions: Viola tricolor, 504 h
Summary of the method: as §2

DIGSA [18] = test: Post-emergence herbicidal action against DIGSA; assay type: in vivo, Digitaria sanguinalis; conditions: Digitaria sanguinalis, 504 h
Summary of the method: as §2

| SMILES | pest or weed control at 80 g/ha (ABUTH [1]) | pest or weed control at 80 g/ha (ALOMY) | pest or weed control at 20 g/ha (AMARE [2]) | pest or weed control at 80 g/ha (AMARE [2]) | pest or weed control at 80 g/ha (AVEFA) | pest or weed control at 80 g/ha (ECHCG [3]) | pest or weed control at 20 g/ha (MATIN [4]) | pest or weed control at 80 g/ha (MATIN [4]) | pest or weed control at 80 g/ha (PHBPU [5]) | pest or weed control at 80 g/ha (POLCO) | pest or weed control at 20 g/ha (SETVI [6]) | pest or weed control at 80 g/ha (SETVI [6]) | pest or weed control at 80 g/ha (VERPE [7]) | pest or weed control at 20 g/ha (VIOTR [8]) | pest or weed control at 80 g/ha (VIOTR [8]) | pest or weed control at 80 g/ha (DIGSA [9]) | pest or weed control at 5 g/ha (ABUTH [10]) | pest or weed control at 20 g/ha (ABUTH [10]) | pest or weed control at 20 g/ha (AMARE [11]) | pest or weed control at 5 g/ha (ECHCG [12]) | also measured |
| --- | --- | --- | --- | --- | --- | --- | --- | --- | --- | --- | --- | --- | --- | --- | --- | --- | --- | --- | --- | --- | --- |
| CCc1c(C(=O)Nc2nnnn2C)ccc(C(F)F)c1C(=O)NC1CC1 [Example 1-279] | 100% | 80% | 100% | 100% | 90% | 100% | 100% | 100% | 90% | 90% | 80% | 100% | 90% | 100% | 100% | 100% | 80% | 90% | 100% | 80% | pest or weed control at 20 g/ha (ABUTH [1]; dosage 20 g/ha, scored visually after 3 weeks vs untreated controls, 100% = plants have died, 0% = like control plants, read-out: Pre-emergence action against ABUTH (herbicidal activity in percent)): 100%; pest or weed control at 20 g/ha (POLCO; dosage 20 g/ha): 80%; pest or weed control at 20 g/ha (DIGSA [9]; dosage 20 g/ha): 100%; pest or weed control at 20 g/ha (ECHCG [12]): 90%; pest or weed control at 5 g/ha (MATIN [13]; dosage 5 g/ha): 90%; pest or weed control at 20 g/ha (MATIN [13]): 90%; pest or weed control at 5 g/ha (PHBPU [14]; dosage 5 g/ha): 90%; pest or weed control at 20 g/ha (PHBPU [14]): 90%; pest or weed control at 5 g/ha (SETVI [15]): 90%; pest or weed control at 20 g/ha (SETVI [15]): 90%; pest or weed control at 5 g/ha (VERPE [16]; 5 g/ha): 80%; pest or weed control at 20 g/ha (VERPE [16]): 100%; pest or weed control at 5 g/ha (VIOTR [17]): 90%; pest or weed control at 20 g/ha (VIOTR [17]): 90%; pest or weed control at 5 g/ha (DIGSA [18]): 90%; pest or weed control at 20 g/ha (DIGSA [18]): 90% |
| CNC(=O)c1c(C(F)(F)F)ccc(C(=O)Nc2nnnn2C)c1OC [Example 1-56] | 90% | 90% | 100% | 100% | 80% | 90% | 90% | 90% | 80% | 90% | 90% | 100% | 90% | 100% | 100% | 80% | 80% | 100% | 100% | 80% | pest or weed control at 20 g/ha (PHBPU [5]; dosage 20 g/ha): 80%; pest or weed control at 20 g/ha (ECHCG [12]): 90%; pest or weed control at 20 g/ha (MATIN [13]): 90%; pest or weed control at 20 g/ha (PHBPU [14]): 80%; pest or weed control at 5 g/ha (SETVI [15]): 100%; pest or weed control at 20 g/ha (SETVI [15]): 100%; pest or weed control at 20 g/ha (VERPE [16]): 90%; pest or weed control at 5 g/ha (VIOTR [17]): 100%; pest or weed control at 20 g/ha (VIOTR [17]): 100%; pest or weed control at 5 g/ha (DIGSA [18]): 90%; pest or weed control at 20 g/ha (DIGSA [18]): 100% |
